From publication PMC11968281, “eIF3d and eIF4G2 mediate an alternative mechanism of cap-dependent but eIF4E-independent translation initiation” (The Journal of Biological Chemistry, 2025)

Target: T1, eIF3d and eIF4G2 complex (Homo sapiens, UniProt O15371)
T1 construct: both recombinant from E. coli, 6xHis tags cut by TEV; full-length human eIF4G2; with Eukaryotic translation initiation factor 4 gamma 2
Assay: fluorescence anisotropy competition with fluorescein-labelled m7G-capped […]'UTR RNA
Type: binding
Details: 20 mM Hepes-KOH pH 7.5, 100 mM KCl, 1 mM MgCl2, 25 C, cap analog competing with 10 nM capped CD101, ITGAE or ACTB RNA, m7GDP concentration not given, ligand site assigned to the eIF3d c

T1 sequence (O15371 whole entry): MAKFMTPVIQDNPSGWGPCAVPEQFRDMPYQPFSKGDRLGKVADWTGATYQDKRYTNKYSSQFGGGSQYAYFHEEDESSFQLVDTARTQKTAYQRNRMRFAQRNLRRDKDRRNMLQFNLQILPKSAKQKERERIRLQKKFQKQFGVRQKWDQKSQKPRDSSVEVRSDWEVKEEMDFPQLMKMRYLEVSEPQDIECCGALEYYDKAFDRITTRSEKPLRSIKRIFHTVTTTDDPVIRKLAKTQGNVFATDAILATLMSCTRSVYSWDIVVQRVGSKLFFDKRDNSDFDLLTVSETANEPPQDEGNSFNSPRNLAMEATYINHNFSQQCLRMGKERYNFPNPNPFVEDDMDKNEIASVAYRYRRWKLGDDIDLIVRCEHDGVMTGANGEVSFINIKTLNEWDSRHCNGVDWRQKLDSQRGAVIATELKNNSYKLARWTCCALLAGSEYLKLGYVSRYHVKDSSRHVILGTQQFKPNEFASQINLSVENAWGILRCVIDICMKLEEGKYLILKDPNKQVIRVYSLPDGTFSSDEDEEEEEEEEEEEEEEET
T1 sequence (P78344 whole entry partner): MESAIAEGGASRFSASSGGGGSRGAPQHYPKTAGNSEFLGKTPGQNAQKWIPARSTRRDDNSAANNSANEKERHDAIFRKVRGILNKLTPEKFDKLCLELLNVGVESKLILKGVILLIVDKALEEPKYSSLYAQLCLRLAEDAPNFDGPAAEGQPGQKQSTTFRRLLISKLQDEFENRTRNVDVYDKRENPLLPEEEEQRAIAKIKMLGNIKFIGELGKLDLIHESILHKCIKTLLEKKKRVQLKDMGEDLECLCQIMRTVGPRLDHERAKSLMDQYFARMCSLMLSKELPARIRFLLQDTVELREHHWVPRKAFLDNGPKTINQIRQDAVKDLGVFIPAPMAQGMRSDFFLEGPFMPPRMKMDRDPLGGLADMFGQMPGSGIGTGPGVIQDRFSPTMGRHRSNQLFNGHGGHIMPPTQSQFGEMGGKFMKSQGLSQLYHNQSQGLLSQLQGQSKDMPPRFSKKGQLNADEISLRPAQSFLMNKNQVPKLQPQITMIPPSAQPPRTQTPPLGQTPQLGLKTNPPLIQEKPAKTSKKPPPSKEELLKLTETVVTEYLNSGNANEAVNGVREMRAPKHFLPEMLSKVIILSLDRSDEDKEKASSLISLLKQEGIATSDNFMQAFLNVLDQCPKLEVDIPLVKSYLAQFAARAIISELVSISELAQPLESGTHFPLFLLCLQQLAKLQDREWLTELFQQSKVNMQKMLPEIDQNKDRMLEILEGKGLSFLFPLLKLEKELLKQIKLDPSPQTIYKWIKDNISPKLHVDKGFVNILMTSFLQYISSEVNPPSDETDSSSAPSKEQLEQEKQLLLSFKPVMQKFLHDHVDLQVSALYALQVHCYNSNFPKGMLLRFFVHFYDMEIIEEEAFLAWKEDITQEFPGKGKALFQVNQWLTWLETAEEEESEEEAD

`C[n+]1cn([C@@H]2O[C@H](COP(=O)(O)OP(=O)(O)O)[C@@H](O)[C@H]2O)c2nc(N)[nH]c(=O)c21` [m^7GDP] was tested, and the “fluorescence anisotropy competition with fluorescein-labelled m7G-capped 5'UTR R” value was “reduction in the binding affinity of the eIF3d/eIF4G2 complex to the m^7G cap was also observed”.
